For orientation: IC50 means the midpoint of a concentration-inhibition curve.

One experiment has as its system K562. The experiment can be described thus: Cytotoxicity against human K562 cells assessed as decrease in cell viability after 48 hrs by MTT assay. In kind it is functional, cell-based. The conditions noted are these: K562, 48 h. (Formazan colour is commonly taken as a measure of viable cells.)
For the next experiment, the system named is HCT-116. The experiment is described as follows: Cytotoxicity against human HCT116 cells assessed as decrease in cell viability after 48 hrs by MTT assay. In kind it is functional, cell-based. The settings on record: HCT-116, 48 h.
For a further experiment, the system named is L02. The experiment is described as follows: Cytotoxicity against human LO2 cells assessed as decrease in cell viability after 48 hrs by MTT assay. In kind it is ADME, cell-based. The conditions noted are these: L02, 48 h.
Experiment [1] in a line: Cytotoxicity against human Huh7.5 cells assessed as decrease in cell viability after 48 hrs by MTT assay. In kind it is functional, cell-based. The settings on record: Huh7.5, 48 h.

Turning to `CC(=O)c1cccn1[C@@H]1C[C@H]2O[C@@](C)([C@@H]1O)n1c3ccccc3c3c4c(c5c6ccccc6n2c5c31)C(=O)NC4`, the IC50 is 10.5 µM in the experiment with K562, 3.9 µM in the experiment on HCT-116, > 100 µM in the experiment with L02 and 2.7 µM in experiment [1].

As for `C[C@]12O[C@H](C[C@@H](N)[C@H]1O)n1c3ccccc3c3c4c(c5c6ccccc6n2c5c31)CNC4=O`, the IC50 with K562 was determined as 0.9 µM; in the experiment on HCT-116, 0.2 µM; in the experiment with L02, 2.7 µM; in experiment [1], 0.4 µM.

Regarding `CC(=O)N[C@@H]1C[C@H]2O[C@@](C)([C@@H]1O)n1c3ccc(O)cc3c3c4c(c5c6ccccc6n2c5c31)C(=O)NC4`, the IC50 in the experiment with K562 is 8.8 µM; with HCT-116, 2.7 µM; in the experiment on L02, > 100 µM; in experiment [1], > 100 µM.

For `CC(=O)N[C@@H]1C[C@H]2O[C@@](C)([C@@H]1O)n1c3ccccc3c3c4c(c5c6ccccc6n2c5c31)C(=O)NC4`, the half-maximal inhibitory concentration (IC50) in the experiment with K562 is 5.2 µM; in the experiment with HCT-116 it was 1 µM; with L02, 24.2 µM; in experiment [1] it was 2.1 µM.

Regarding `CC(=O)N[C@@H]1C[C@H](n2c3ccccc3c3c4c(c5c6ccccc6[nH]c5c32)CNC4=O)O[C@@H](C)[C@@H]1O`, the IC50 was 32.4 µM in the experiment with K562, > 100 µM in the experiment on HCT-116, 41.1 µM with L02 and 35.2 µM in experiment [1].

With `C[C@@H]1O[C@@H](n2c3ccccc3c3c4c(c5c6ccccc6[nH]c5c32)CNC4=O)[C@H](O)[C@H](O)[C@H]1O`, the IC50 with K562 was > 100 µM; with HCT-116 it was 9 µM; in the experiment on L02, 73.8 µM; in experiment [1], 46 µM.

`C[C@@H]1O[C@@H](n2c3ccccc3c3c4c(c5c6ccccc6[nH]c5c32)CNC4=O)C[C@@H](N)[C@H]1O`: the IC50 in the experiment with K562 was found to be 7.7 µM; in the experiment with HCT-116 it was 5.1 µM; in the experiment on L02 it was 5.8 µM; in experiment [1], 7 µM.
